US20150038707A1, “PROCESS FOR MAKING CGRP RECEPTOR ANTAGONISTS” (Merck Sharp & Dohme Corp., priority 2012, published 2015)

Columns and labels:
[1] = system: female Aedes aegypti (Thailand strain) mosquitoes; test: Spatial repellency assay on mosquitoes (Example 3); type: in vivo; conditions: netting treated at 0.0025-2.5 nmol/cm^2
Method: The four compounds of formula I described in Example 2 were tested for spatial repellency (directed movement away from the chemical source without the insect making physical contact with the treated surface) at low doses on female Aedes aegypti (Thailand strain) mosquitoes. The spatial repellency response was determined by use of the spatial repellency assay disclosed by Grieco et al. in “A New Classification System for the Actions of IRS Chemicals Traditionally Used for Malaria Control” in Plos One, Issue 8 (2007) (available at www.plosone.org) which is incorporated herein by reference for all relevant and consistent purposes. The assay used was a cylindrical assembly that included a treatment chamber at one end and a control chamber at the other end. The treatment chamber included a netting strip (nylon organdy) that was treated with the insecticide of interest at the relevant dose. The treatment chamber and control chamber were connected by a clear cylinder and were separated from the clear cylinder by butterfly valves. Twenty (20) mosquitoes were introduced into the clear central chamber and the butterfly valves were opened after 30 seconds. After 10 minutes, the valves were closed and the number of mosquitoes in each chamber was counted.
The compositions were applied to the net strips by the same methods and at the same concentrations as described in Example 2 above. […]

[2] = system: Ae. Aegypti, Isla Mujer strain (metabolically pyrethroid resistant); test: Contact irritancy on metabolically resistant mosquitoes (Example 5); type: in vivo
Method: Four compounds of formula (I) were tested for contact irritancy (i.e., movement away from the source after physical contact) at low doses on female Aedes aegypti (Thailand strain) mosquitoes. The contact irritant response was determined by use of the contact irritant assay disclosed by Grieco et al. in “A New Classification System for the Actions of IRS Chemicals Traditionally Used for Malaria Control,” Plos One, Issue 8 (2007) (available at www.plosone.org). The assay used was a cylindrical assembly that included a metal treatment end to which 10 mosquitoes were introduced and a clear receiving chamber. The treatment end included a netting strip (nylon organdy) that was treated with the insecticide of interest at the relevant dose. A butterfly valve separated the treatment end from the remainder of the assembly.
Each composition was applied to the netting strip at a varied dose via a 1.5 ml acetone solution. Four (4) treatment concentrations were used—0.0025 nmol/cm^2, 0.025 nmol/cm^2, 0.25 nmol/cm^2 and 2.5 nmol/cm^2. Netting was allowed to dry for 15 minutes prior to placement in the cylinder. Control assays were performed with netting treated with acetone only.
For each run, 10 mosquitoes were transferred into the treatment end of the assembly and, after 30 seconds, the butterfly valve was opened. The valve was closed after 10 minutes and the number of mosquitoes in the clear end (i.e., the number of escaped mosquitoes) was tested.
The contact irritancy protocol of Example 2 was used to determine contact irritancy against mosquitoes (Ae. Aegypti) that had acquired metabolic resistance against pyrethroids. Alphacypermethrin and transfluthrin were also tested. Three mosquito strains were tested—Houston which is pyrethroid susceptible, That which is pyrethroid tolerant and Isla Mujer which is metabolically pyrethroid resistant.

[3] = system: Ae. aegypti Thai strain (pyrethroid tolerant); test: Toxicity assay on treated netting (Example 7), Thai strain; type: in vivo
Method: (§1) Several compounds were tested to determine their toxic effect on Ae. aegypti mosquitoes. Three mosquito strains were tested—Houston which is pyrethroid susceptible, That which is pyrethroid tolerant and Isla Mujer which is metabolically pyrethroid resistant.
(§2) The toxicity assay involved a single chamber to which treated netting was added. Twenty (20) mosquitoes were transferred to the chamber. After 1 hour, the number of knocked down mosquitoes was recorded and all mosquitoes were transferred to holding cartoons. The mosquitoes were given a 10% sucrose-soaked cotton ball and returned to the insectary. Mortaility was measured after 24 hours. A control assay using acetone-treated netting was used. Six replicates were performed at each treatment concentration.

[4] = system: Ae. aegypti Isla mujeres strain (metabolically pyrethroid resistant); test: Toxicity assay on treated netting (Example 7), Isla mujeres strain; type: in vivo; conditions: for toxicity to resistant populations compared with standard compounds: summary of Table 2
Method: as §1, §2

[5] = system: KDR Resisant An. Gambiae; test: Bottle toxicity assay (Example 8), knockdown resistant mosquitoes; type: in vivo, Anopheles gambiae; conditions: for effectiveness against knockdown resistant strains: summary of Table 3
Method: Several compounds were tested to determine their toxic effect on knockdown resistant Anopheles gambiae mosquitoes and susceptible mosquitoes. Acetone and different amounts of pesticides were added to 250 ml bottles. In one bottle, only acetone was added as a control. The bottles were rotated in all directions while uncapped until all acetone was evaporated and the insecticide was coated onto the inside surfaces of the bottle. A number of knockdown resistant Anopheles gambiae mosquitoes were added to the bottle. The number of dead mosquitoes was recorded at 1 hour and 24 hours.

[6] = system: mosquitoes (Ae. aegypti); test: Compound residual life: spatial repellency (Example 11); type: in vivo; conditions: 12 week test period
Method: The four compounds of formula I described in Example 2 were tested for spatial repellency (directed movement away from the chemical source without the insect making physical contact with the treated surface) at low doses on female Aedes aegypti (Thailand strain) mosquitoes. The spatial repellency response was determined by use of the spatial repellency assay disclosed by Grieco et al. in “A New Classification System for the Actions of IRS Chemicals Traditionally Used for Malaria Control” in Plos One, Issue 8 (2007) (available at www.plosone.org) which is incorporated herein by reference for all relevant and consistent purposes. The assay used was a cylindrical assembly that included a treatment chamber at one end and a control chamber at the other end. The treatment chamber included a netting strip (nylon organdy) that was treated with the insecticide of interest at the relevant dose. The treatment chamber and control chamber were connected by a clear cylinder and were separated from the clear cylinder by butterfly valves. Twenty (20) mosquitoes were introduced into the clear central chamber and the butterfly valves were opened after 30 seconds. After 10 minutes, the valves were closed and the number of mosquitoes in each chamber was counted. […]

[7] = Dose 0.025 nm/cm^2, Time 1 hour
[8] = Dose 0.025 nm/cm^2, Time 24 hours
[9] = Dose 0.0725 nm/cm^2, Time 1 hour
[10] = Dose 0.0725 nm/cm^2, Time 24 hours
[11] = Dose 0.125 nm/cm^2, Time 1 hour
[12] = Dose 0.125 nm/cm^2, Time 24 hours
[13] = Dose 2.5 nm/cm^2, Time 24 hours
[14] = Dose 0.25 nm/cm^2, Time 24 hours
[15] = Dose 0.025 μg/bottle, Strain Tested F122, Time 1 hour
[16] = Dose 0.025 μg/bottle, Strain Tested F122, Time 24 hours
[17] = Dose 0.025 μg/bottle, Strain Tested F123, Time 1 hour
[18] = Dose 0.025 μg/bottle, Strain Tested F123, Time 24 hours
[19] = Dose 0.25 μg/bottle, Strain Tested F122, Time 1 hour
[20] = Dose 0.25 μg/bottle, Strain Tested F122, Time 24 hours
[21] = Dose 0.25 μg/bottle, Strain Tested F123, Time 1 hour
[22] = Dose 0.25 μg/bottle, Strain Tested F123, Time 24 hours
[23] = Dose 2.5 μg/bottle, Strain Tested F122, Time 1 hour
[24] = Dose 2.5 μg/bottle, Strain Tested F122, Time 24 hours
[25] = Dose 2.5 μg/bottle, Strain Tested F123, Time 1 hour
[26] = Dose 2.5 μg/bottle, Strain Tested F123, Time 24 hours

## CC1(C)C(C=C(Cl)C(F)(F)F)C1C(=O)OCc1ccc(F)c(C(F)(F)F)c1F (stereo not drawn) [Compound 1405]
[1]
  spatial repellency, dose compared with DDT (FIG. 2): showed repellency at a lower dose than DDT
[2]
  contact irritancy, resistant strain (FIG. 4): effective in resistant strains
[3]; [7]
  Thai (% dead (SE)): 83.3%
[3]; [8]
  Thai (% dead (SE)): 15%
[3]; [9]
  Thai (% dead (SE)): 100%
[3]; [10]
  Thai (% dead (SE)): 100%
[3]; [11]
  Thai (% dead (SE)): 100%
[3]; [12]
  Thai (% dead (SE)): 100%
[3]; Dose 2.5 nm/cm^2, Time 1 hour
  Thai (% dead (SE)): 100%
[3]; [13]
  Thai (% dead (SE)): 100%
[4]; [7]
  Isla mujeres (% dead (SE)): 100%
[4]; [8]
  Isla mujeres (% dead (SE)): 11.84%
[4]; [9]
  Isla mujeres (% dead (SE)): 100%
[4]; [10]
  Isla mujeres (% dead (SE)): 9.69%
[4]; [11]
  Isla mujeres (% dead (SE)): 100%
[4]; [12]
  Isla mujeres (% dead (SE)): 9.89%
[4]; Dose 0.25 nm/cm^2, Time 1 hour
  Isla mujeres (% dead (SE)): 100%
[4]; [14]
  Isla mujeres (% dead (SE)): 100%
[4]; Dose 2.5 nm/cm^2, Time 1 hour
  Isla mujeres (% dead (SE)): 100%
[4]; [13]
  Isla mujeres (% dead (SE)): 100%
[4]
  toxicity to resistant populations compared with standard compounds: more toxic to resistant populations than permethrin, matfluthrin and transfluthrin
[5]; Dose 0.00025 μg/bottle, Strain Tested F123, Time 1 hour
  KDR Resisant An. Gambiae (% dead (SE)): 55%
[5]; Dose 0.00025 μg/bottle, Strain Tested F123, Time 24 hours
  KDR Resisant An. Gambiae (% dead (SE)): 37%
[5]; Dose 0.0025 μg/bottle, Strain Tested F122, Time 1 hour
  KDR Resisant An. Gambiae (% dead (SE)): 100%
[5]; Dose 0.0025 μg/bottle, Strain Tested F122, Time 24 hours
  KDR Resisant An. Gambiae (% dead (SE)): 66%
[5]; Dose 0.0025 μg/bottle, Strain Tested F123, Time 1 hour
  KDR Resisant An. Gambiae (% dead (SE)): 92%
[5]; Dose 0.0025 μg/bottle, Strain Tested F123, Time 24 hours
  KDR Resisant An. Gambiae (% dead (SE)): 100%
[5]; [15]
  KDR Resisant An. Gambiae (% dead (SE)): 100%
[5]; [16]
  KDR Resisant An. Gambiae (% dead (SE)): 100%
[5]; [17]
  KDR Resisant An. Gambiae (% dead (SE)): 100%
[5]; [18]
  KDR Resisant An. Gambiae (% dead (SE)): 100%
[5]; [19]
  KDR Resisant An. Gambiae (% dead (SE)): 100%
[5]; [20]
  KDR Resisant An. Gambiae (% dead (SE)): 100%
[5]; [21]
  KDR Resisant An. Gambiae (% dead (SE)): 100%
[5]; [22]
  KDR Resisant An. Gambiae (% dead (SE)): 100%
[5]; [23]
  KDR Resisant An. Gambiae (% dead (SE)): 100%
[5]; [24]
  KDR Resisant An. Gambiae (% dead (SE)): 100%
[5]; [25]
  KDR Resisant An. Gambiae (% dead (SE)): 100%
[5]; [26]
  KDR Resisant An. Gambiae (% dead (SE)): 100%
[5]; Dose 25 μg/bottle, Strain Tested F123, Time 1 hour
  KDR Resisant An. Gambiae (% dead (SE)): 100%
[5]; Dose 25 μg/bottle, Strain Tested F123, Time 24 hours
  KDR Resisant An. Gambiae (% dead (SE)): 100%
[5]
  effectiveness against knockdown resistant strains: effective against knockdown resistant strains

## CC1(C)C(C=C(Cl)Cl)C1C(=O)OCc1ccc(F)c(C(F)(F)F)c1F (stereo not drawn) [Compound 1406]
[2]
  contact irritancy, resistant strain (FIG. 4): effective in resistant strains
[3]; [7]
  Thai (% dead (SE)): 100%
[3]; [8]
  Thai (% dead (SE)): 98.3%
[3]; [9]
  Thai (% dead (SE)): 100%
[3]; [10]
  Thai (% dead (SE)): 100%
[3]; Dose 0.25 nm/cm^2, Time 1 hour
  Thai (% dead (SE)): 96.6%
[3]; [14]
  Thai (% dead (SE)): 100%
[3]; Dose 2.5 nm/cm^2, Time 1 hour
  Thai (% dead (SE)): 100%
[3]; [13]
  Thai (% dead (SE)): 100%
[4]; Dose 0.00725 nm/cm^2, Time 1 hour
  Isla mujeres (% dead (SE)): 0%
[4]; Dose 0.00725 nm/cm^2, Time 24 hours
  Isla mujeres (% dead (SE)): 7.77%
[4]; [7]
  Isla mujeres (% dead (SE)): 100%
[4]; [8]
  Isla mujeres (% dead (SE)): 42.77%
[4]; [9]
  Isla mujeres (% dead (SE)): 96.29%
[4]; [10]
  Isla mujeres (% dead (SE)): 25.37%
[4]; [11]
  Isla mujeres (% dead (SE)): 100%
[4]; [12]
  Isla mujeres (% dead (SE)): 100%
[4]; Dose 0.25 nm/cm^2, Time 1 hour
  Isla mujeres (% dead (SE)): 100%
[4]; [14]
  Isla mujeres (% dead (SE)): 100%
[4]; Dose 2.5 nm/cm^2, Time 1 hour
  Isla mujeres (% dead (SE)): 100%
[4]; [13]
  Isla mujeres (% dead (SE)): 100%
[4]
  toxicity to resistant populations compared with standard compounds: more toxic to resistant populations than permethrin, matfluthrin and transfluthrin
[5]; [15]
  KDR Resisant An. Gambiae (% dead (SE)): 100%
[5]; [16]
  KDR Resisant An. Gambiae (% dead (SE)): 100%
[5]; [17]
  KDR Resisant An. Gambiae (% dead (SE)): 100%
[5]; [18]
  KDR Resisant An. Gambiae (% dead (SE)): 100%
[5]; [19]
  KDR Resisant An. Gambiae (% dead (SE)): 100%
[5]; [20]
  KDR Resisant An. Gambiae (% dead (SE)): 100%
[5]; [21]
  KDR Resisant An. Gambiae (% dead (SE)): 100%
[5]; [22]
  KDR Resisant An. Gambiae (% dead (SE)): 100%
[5]; [23]
  KDR Resisant An. Gambiae (% dead (SE)): 100%
[5]; [24]
  KDR Resisant An. Gambiae (% dead (SE)): 100%
[5]; [25]
  KDR Resisant An. Gambiae (% dead (SE)): 100%
[5]; [26]
  KDR Resisant An. Gambiae (% dead (SE)): 100%
[5]
  effectiveness against knockdown resistant strains: effective against knockdown resistant strains
[6]
  residual spatial repellent activity (in words): appeared to be the more residual of the two compounds tested
